How the values were obtained:
Mtb DnaG [1] = target: T1, Mtb DnaG (Mycobacterium tuberculosis, UniProt P9WNW1); assay type: biochemical; settings: for signal change in HTS: 13 µM compound, not enzyme activation but phosphate from the compound
T1 sequence (P9WNW1 1-639): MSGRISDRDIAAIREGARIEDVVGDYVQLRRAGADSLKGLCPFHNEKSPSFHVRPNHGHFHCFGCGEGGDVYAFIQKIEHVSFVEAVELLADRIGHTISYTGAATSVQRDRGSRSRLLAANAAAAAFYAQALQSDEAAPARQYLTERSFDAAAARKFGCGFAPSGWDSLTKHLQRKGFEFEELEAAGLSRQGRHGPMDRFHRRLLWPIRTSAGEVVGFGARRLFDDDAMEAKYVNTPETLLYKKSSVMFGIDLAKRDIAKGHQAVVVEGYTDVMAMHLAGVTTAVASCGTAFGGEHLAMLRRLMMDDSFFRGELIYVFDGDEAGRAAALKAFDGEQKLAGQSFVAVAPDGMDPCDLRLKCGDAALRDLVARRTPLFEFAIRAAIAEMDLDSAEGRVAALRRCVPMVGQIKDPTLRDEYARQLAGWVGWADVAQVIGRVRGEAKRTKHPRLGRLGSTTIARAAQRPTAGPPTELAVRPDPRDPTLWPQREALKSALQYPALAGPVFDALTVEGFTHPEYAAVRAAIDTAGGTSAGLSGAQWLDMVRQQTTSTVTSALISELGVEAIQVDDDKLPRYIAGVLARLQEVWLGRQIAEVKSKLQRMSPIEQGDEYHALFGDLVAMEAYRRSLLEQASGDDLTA

Mtb DnaG [2] = target: T1, Mtb DnaG; assay type: biochemical; settings: 10 µM inhibitor (Figure 3); gel, Figures 3 and 9
Mtb DnaG [3] = target: T1, Mtb DnaG; test: Dose–response coupled primase–pyrophosphatase assay; settings: for Hill coefficient: dose–response fit, 1.25 µM DNA, 110 µM NTP, 0.5 µM Mtb DnaG
Mtb DnaG [4] = target: T1, Mtb DnaG; test: Mode of inhibition assays; assay type: biochemical; settings: for mode of inhibition: Lineweaver–Burk plots, varied NTP and DNA; for n, number of inhibitor molecules bound: alternative model with high cooperativity; for n, number of binding sites on Mtb DnaG: global fit, non-cooperative model
human DNA polymerase α = settings: cited from earlier work
human primase = settings: cited from earlier work
Mtb DnaG (DNA primase) = target: T2, Mtb DnaG (DNA primase) (Mycobacterium tuberculosis H37Rv, UniProt P9WNW1 1-639); test: fluorescence anisotropy
T2 sequence: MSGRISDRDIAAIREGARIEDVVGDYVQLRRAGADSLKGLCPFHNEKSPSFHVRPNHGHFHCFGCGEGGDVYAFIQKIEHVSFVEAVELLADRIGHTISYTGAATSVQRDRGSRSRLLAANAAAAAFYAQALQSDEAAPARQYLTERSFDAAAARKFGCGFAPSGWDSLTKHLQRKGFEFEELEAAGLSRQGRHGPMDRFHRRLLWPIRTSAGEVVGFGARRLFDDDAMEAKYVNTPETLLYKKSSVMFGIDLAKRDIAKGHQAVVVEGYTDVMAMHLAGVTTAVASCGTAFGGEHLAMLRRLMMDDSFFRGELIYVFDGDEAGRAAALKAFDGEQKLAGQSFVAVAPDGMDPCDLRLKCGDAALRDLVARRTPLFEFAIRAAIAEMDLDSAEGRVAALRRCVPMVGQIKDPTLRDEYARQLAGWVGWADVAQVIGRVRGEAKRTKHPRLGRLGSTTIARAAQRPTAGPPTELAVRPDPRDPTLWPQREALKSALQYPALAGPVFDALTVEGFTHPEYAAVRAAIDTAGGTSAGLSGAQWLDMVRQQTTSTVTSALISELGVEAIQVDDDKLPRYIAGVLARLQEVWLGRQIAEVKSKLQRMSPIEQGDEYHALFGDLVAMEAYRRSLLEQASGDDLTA

O=C(O)CN(CCN(CC(=O)O)CC(=O)O)CC(=O)O [EDTA, ethylenediaminetetraacetic acid]
inhibition by positive control in HTS (Mtb DnaG [1]): full inhibition

CC(C)N(CCC(C(N)=O)(c1ccccc1)c1ccccn1)C(C)C (stereo not shown) [disopyramide phosphate]
signal change in HTS (Mtb DnaG [1]): increase in absorbance

COc1cccc2c1C(=O)c1c(O)c3c(c(O)c1C2=O)C[C@@](O)(C(=O)CO)C[C@@H]3O[C@H]1C[C@H](N)[C@H](O)[C@H](C)O1 [doxorubicin]
effect on synthesis of radioactively labelled RNA products (Mtb DnaG [2]): potent Mtb DnaG inhibitors | IC50 (Mtb DnaG [3]): 7.7 ± 0.5 µM | Hill coefficient (Mtb DnaG [3]): 2.0 ± 0.2 | Ki (Mtb DnaG [4]): 2.5 ± 0.5 µM | mode of inhibition (Mtb DnaG [4]): competitive inhibitors with respect to both NTP and DNA | n, number of inhibitor molecules bound (Mtb DnaG [4]): 2 | n, number of binding sites on Mtb DnaG (Mtb DnaG [4]): 3

O=c1oc2c(O)c(O)cc3c(=O)oc4c(O)c(O)cc1c4c23 [ellagic acid]
IC50 (Mtb DnaG [3]): 22 ± 3 µM

O=C(O)c1ccccc1OP(=O)(O)O [fosfosal]
signal change in HTS (Mtb DnaG [1]): increase in absorbance

CO[C@H]1C[C@H](O[C@H]2[C@H](C)[C@@H](O[C@@H]3O[C@H](C)C[C@H](N(C)C)[C@H]3O)[C@@H](C)C[C@@]3(CO3)C(=O)[C@H](C)[C@@H](O)[C@@H](C)[C@@H](C)OC(=O)[C@@H]2C)O[C@@H](C)[C@@H]1O [oleandomycin phosphate]
signal change in HTS (Mtb DnaG [1]): increase in absorbance

Cc1ccc(C(=O)Nc2ccc(S(=O)(=O)O)c3cc(S(=O)(=O)O)cc(S(=O)(=O)O)c23)cc1NC(=O)c1cccc(NC(=O)Nc2cccc(C(=O)Nc3cc(C(=O)Nc4ccc(S(=O)(=O)O)c5cc(S(=O)(=O)O)cc(S(=O)(=O)O)c45)ccc3C)c2)c1 [suramin]
mode of inhibition (human DNA polymerase α): DNA- and NTP-competitive inhibitor of human DNA polymerase α and primase, respectively | effect on synthesis of radioactively labelled RNA products (Mtb DnaG [2]): potent Mtb DnaG inhibitors | IC50 (Mtb DnaG [3]): 6.3 ± 0.2 µM | Hill coefficient (Mtb DnaG [3]): 2.9 ± 0.1 | Ki (Mtb DnaG [4]): 3.2 ± 0.5 µM | mode of inhibition (Mtb DnaG [4]): competitive inhibitors with respect to both NTP and DNA | n, number of inhibitor molecules bound (Mtb DnaG [4]): 3 | n, number of binding sites on Mtb DnaG (Mtb DnaG [4]): 4 | mode of inhibition (human primase): DNA- and NTP-competitive inhibitor of human DNA polymerase α and primase, respectively

CCGAATCAGTCCGACGACGCATCAGCAC (ssDNA) [28-mer ssDNA]
Kd (Mtb DnaG (DNA primase)): 0.036 ± 0.016 µM
